Measurements taken from article PMC6272861, “In Vitro Inhibition of Human UDP-Glucuronosyl-Transferase (UGT) Isoforms by Astaxanthin, β-Cryptoxanthin, Canthaxanthin, Lutein, and Zeaxanthin: Prediction of in Vivo Dietary Supplement-Drug Interactions” (Molecules, 2016).
Like-named read-outs stand apart in the source and are kept apart here.

Experiments:
UGT1A4 = biological target: T1, UGT1A4 (Homo sapiens, UniProt P22310); assay: Inhibition of UGT1A4 (trifluoperazine-N-glucuronidation) in human liver microsomes; type: in vitro ADME; details: for IC50: 4 μM trifluoperazine, mean ± SD of triplicate, read-out: IC50 towards UGT1A4; for Residual UGT1A4 enzyme activity: highest tested concentration 50 μM
T1 construct: pooled human liver microsomes (final concentration 0.25 mg/mL); tissue Corning Life Sciences; host or cells: pooled human liver microsomes, 150 donors
T1 sequence (P22310 29-534): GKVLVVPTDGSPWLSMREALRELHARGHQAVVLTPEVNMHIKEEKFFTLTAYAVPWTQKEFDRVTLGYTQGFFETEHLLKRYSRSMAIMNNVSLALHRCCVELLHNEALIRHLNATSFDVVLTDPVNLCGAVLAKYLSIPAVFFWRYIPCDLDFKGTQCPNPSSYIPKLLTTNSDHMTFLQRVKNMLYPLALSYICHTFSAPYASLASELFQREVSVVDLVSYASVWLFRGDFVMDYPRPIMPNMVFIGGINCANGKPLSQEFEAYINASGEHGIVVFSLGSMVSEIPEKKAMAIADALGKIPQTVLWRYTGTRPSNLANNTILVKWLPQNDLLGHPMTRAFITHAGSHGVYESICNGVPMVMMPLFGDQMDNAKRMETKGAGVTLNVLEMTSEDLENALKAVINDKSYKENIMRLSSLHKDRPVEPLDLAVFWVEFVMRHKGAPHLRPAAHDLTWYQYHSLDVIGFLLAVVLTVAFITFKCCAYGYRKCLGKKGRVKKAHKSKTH
Description: (§1) The formation activities of β-estradiol-3-glucuronide, chenodeoxycholic acid 24-acyl-β-D-glucuronide, trifluoperazine-N-glucuronide, imipramine-N-β-D-glucuronide, serotonin-O-glucuronide, propofol-O-glucuronide, and zidovudine-5′-glucuronide were determined to probe the activities of UGT1A1, UGT1A3, UGT1A4, UGT1A6, UGT1A9 and UGT2B7, respectively, in human liver microsomes.
(§2) In brief, the 90-µL incubation mixture, including pooled human liver microsomes (final concentration 0.25 mg/mL), 100 mM Tris buffer, 25 µg/mL alamethicin, 5 mM MgCl2, the UGT-selective substrates, and five xanthophylls (0–50 μM), were pre-incubated for 30 min on ice to allow formation of alamethicin pores. Reac2345tions were initiated by the addition of 10 μL of UDPGA (5 mM) to a final reaction volume of 0.1 mL and incubated at 37 °C for 60 min (except 30 min for UGT1A9) in a shaking water bath. After incubation, each reaction was stopped by adding 50 μL of ice-cold acetonitrile containing chlorpropamide (300 ng/mL) or theophylline (30 μg/mL or 300 μg/mL) as an internal standard. The mixtures were then centrifuged (13,000 g for 15 min at 4 °C) and 5-µL aliquots of the supernatants were injected into an LC-MS/MS system. […] All incubations were performed in triplicate, and mean values were used for analysis.
(§3) Chromatographic separations were performed on an Agilent Poroshell 120 EC-C18 column (50 mm × 4.6-mm i.d.; 2.7-μm particle size; Agilent Technologies) to quantify β-estradiol-3-glucuronide (UGT1A1), chenodeoxycholic acid 24-acyl-β-D-glucuronide (UGT1A3), trifluoperazine-N-glucuronide (UGT1A4), propofol-O-glucuronide (UGT1A9), zidovudine-5′-glucuronide (UGT2B7), and 4-methylumbelliferyl glucuronide (UGT2B15); an Agilent Poroshell 120 EC-C18 column (100 × 4.6-mm i.d.; 2.7-mm particle size) was used for quantification of serotonin-O-glucuronide (UGT1A6). The isocratic mobile phase consisted of distilled water (A) and acetonitrile containing 0.1% formic acid (B) at a ratio (v/v) of 10:90 for chenodeoxycholic acid 24-acyl-β-D-glucuronide, 30:70 for trifluoperazine-N-glucuronide and zidovudine-5′-glucuronide, 50:50 for propofol-O-glucuronide and 4-methylumbelliferyl glucuronide, 65:35 for β-estradiol-3-glucuronide, and 90:10 for serotonin-O-glucuronide, at a flow rate of 0.5 mL/min. The total run time was 4.0 min per sample for each metabolite, with the exception of serotonin-O-glucuronide (6.0 min). Peak areas for all of the analytes were automatically integrated using Analyst software (version 1.5.2, Applied Biosystems, Foster City, CA, USA).
(§4) The IC50 values were calculated via nonlinear least-squares regression analysis from plots of the logarithms of inhibitor concentration vs. the residual percentages of activities after inhibition, using WinNonlin (ver. 4.0; Pharsight, Mountain View, CA, USA).

UGT2B7 = biological target: T2, UGT2B7 (Homo sapiens, UniProt P16662); assay: Inhibition of UGT2B7 (zidovudine-5′-glucuronidation) in human liver microsomes; details: for Residual UGT2B7 enzyme activity: highest tested concentration 50 μM
T2 sequence (P16662 24-529): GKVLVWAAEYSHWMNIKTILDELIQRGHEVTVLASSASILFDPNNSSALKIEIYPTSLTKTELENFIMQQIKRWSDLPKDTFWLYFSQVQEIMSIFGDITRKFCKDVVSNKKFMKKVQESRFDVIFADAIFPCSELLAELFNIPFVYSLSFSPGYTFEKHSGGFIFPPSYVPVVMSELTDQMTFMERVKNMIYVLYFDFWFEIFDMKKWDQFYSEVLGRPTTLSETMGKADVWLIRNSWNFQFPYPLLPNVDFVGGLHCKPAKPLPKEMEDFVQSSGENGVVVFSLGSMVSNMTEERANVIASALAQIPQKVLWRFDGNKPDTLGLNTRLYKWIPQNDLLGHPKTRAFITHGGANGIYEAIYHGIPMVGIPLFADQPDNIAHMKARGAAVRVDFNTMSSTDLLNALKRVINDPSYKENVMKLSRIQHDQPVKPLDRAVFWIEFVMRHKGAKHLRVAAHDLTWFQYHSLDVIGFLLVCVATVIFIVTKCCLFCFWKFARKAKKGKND
Description: as §1, §2, §3, §4

UGT1A9 = biological target: T3, UGT1A9 (Homo sapiens, UniProt O60656); assay: Inhibition of UGT1A9 (propofol-O-glucuronidation) in human liver microsomes; details: for Residual UGT1A9 enzyme activity: highest tested concentration 50 μM
T3 sequence (O60656 26-530): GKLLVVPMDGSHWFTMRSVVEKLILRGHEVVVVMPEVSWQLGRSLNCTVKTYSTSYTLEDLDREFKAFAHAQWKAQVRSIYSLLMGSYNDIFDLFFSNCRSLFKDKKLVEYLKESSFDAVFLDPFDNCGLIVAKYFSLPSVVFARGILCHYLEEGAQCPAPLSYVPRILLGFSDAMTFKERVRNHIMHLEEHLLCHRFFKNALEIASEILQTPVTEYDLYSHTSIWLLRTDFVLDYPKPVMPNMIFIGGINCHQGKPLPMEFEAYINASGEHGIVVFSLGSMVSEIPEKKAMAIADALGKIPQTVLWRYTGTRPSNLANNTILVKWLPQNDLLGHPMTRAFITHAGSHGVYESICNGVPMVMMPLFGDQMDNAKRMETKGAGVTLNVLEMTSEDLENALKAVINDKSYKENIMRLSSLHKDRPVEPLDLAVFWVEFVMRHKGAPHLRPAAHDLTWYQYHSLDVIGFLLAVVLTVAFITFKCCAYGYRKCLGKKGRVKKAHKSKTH
Description: as §1, §2, §3, §4

UGT1A6 = biological target: T4, UGT1A6 (Homo sapiens, UniProt P19224); assay: Inhibition of UGT1A6 (serotonin-O-glucuronidation) in human liver microsomes; type: in vitro ADME; details: for IC50: 4000 μM serotonin, mean ± SD of triplicate, read-out: IC50 towards UGT1A6; for Residual UGT1A6 enzyme activity: highest tested concentration 50 μM
T4 construct: pooled human liver microsomes (final concentration 0.25 mg/mL); tissue Corning Life Sciences; host or cells: pooled human liver microsomes, 150 donors
T4 sequence (P19224 27-532): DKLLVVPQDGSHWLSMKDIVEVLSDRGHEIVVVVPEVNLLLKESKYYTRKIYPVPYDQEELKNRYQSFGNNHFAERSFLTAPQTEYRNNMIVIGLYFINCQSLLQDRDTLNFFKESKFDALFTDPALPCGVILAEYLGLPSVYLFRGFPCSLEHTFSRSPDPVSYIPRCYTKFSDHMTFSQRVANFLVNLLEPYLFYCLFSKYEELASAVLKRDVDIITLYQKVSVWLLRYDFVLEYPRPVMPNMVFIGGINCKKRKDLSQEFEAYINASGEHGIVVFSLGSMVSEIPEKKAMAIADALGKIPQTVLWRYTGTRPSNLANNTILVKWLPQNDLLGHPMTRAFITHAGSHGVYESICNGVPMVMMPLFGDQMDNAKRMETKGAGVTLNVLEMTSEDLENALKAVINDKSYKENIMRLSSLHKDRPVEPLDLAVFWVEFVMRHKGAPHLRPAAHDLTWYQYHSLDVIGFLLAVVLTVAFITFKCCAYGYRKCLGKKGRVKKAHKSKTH
Description: as §1, §2
The IC50 values were calculated via nonlinear least-squares regression analysis from plots of the logarithms of inhibitor concentration vs. the residual percentages of activities after inhibition, using WinNonlin (ver. 4.0; Pharsight, Mountain View, CA, USA). The apparent inhibitory constants (the Ki values) were estimated from fitted curves using the WinNonlin software. Inhibition data were fitted to different models of enzyme inhibition (competitive, non-competitive, uncompetitive, or mixed) using nonlinear least-squares regression analysis (WinNonlin software). The most appropriate inhibition model was selected based on goodness-of-fit criteria determined via visual inspection, by calculating correlations of determination (R^2 values), and using the corrected Akaike′s Information Criterion. For visual inspection, data were presented as Dixon plots.

[1] = read-out: IC50 towards UGT2B7, human liver microsomes, 100 μM zidovudine, mean ± SD of triplicate
[2] = read-out: IC50 towards UGT1A9, human liver microsomes, 100 μM propofol, mean ± SD of triplicate

IC50 (UGT1A4) [µM]	Residual UGT1A4 enzyme activity (UGT1A4)	IC50 (UGT2B7) [µM]	Residual UGT2B7 enzyme activity (UGT2B7; human liver microsomes)	IC50 (UGT1A9) [µM]	Residual UGT1A9 enzyme activity (UGT1A9; human liver microsomes)	IC50 (UGT1A6) [µM]	Residual UGT1A6 enzyme activity (UGT1A6)	SMILES	IC50 (UGT2B7; [1]) [µM]	IC50 (UGT1A9; [2]) [µM]
> 50	greater than 80%	> 50	greater than 80%	> 50	greater than 80%	> 50	greater than 80%	CC1=C(/C=C/C(C)=C/C=C/C(C)=C/C=C/C=C(C)/C=C/C=C(C)/C=C/C2=C(C)C[C@@H](O)CC2(C)C)C(C)(C)C[C@H](O)C1 [ZE, zeaxanthin]		
> 50	greater than 80%	> 50	greater than 80%	> 50	greater than 80%	> 50	greater than 80%	CC1=C(/C=C/C(C)=C/C=C/C(C)=C/C=C/C=C(C)/C=C/C=C(C)/C=C/C2=C(C)C(=O)[C@@H](O)CC2(C)C)C(C)(C)C[C@H](O)C1=O [AS, astaxanthin]		
28.7 ± 3.79		> 50		> 50		> 50		CC1=C[C@H](O)CC(C)(C)[C@H]1/C=C/C(C)=C/C=C/C(C)=C/C=C/C=C(C)/C=C/C=C(C)/C=C/C1=C(C)C[C@@H](O)CC1(C)C [LU, lutein]		

SMILES	IC50 (UGT1A4) [µM]	Residual UGT1A4 enzyme activity (UGT1A4)	IC50 (UGT2B7) [µM]	Residual UGT2B7 enzyme activity (UGT2B7; human liver microsomes)	IC50 (UGT1A9) [µM]	Residual UGT1A9 enzyme activity (UGT1A9; human liver microsomes)	IC50 (UGT1A6) [µM]	Residual UGT1A6 enzyme activity (UGT1A6)	IC50 (UGT2B7; [1]) [µM]	IC50 (UGT1A9; [2]) [µM]
CC1=C(/C=C/C(C)=C/C=C/C(C)=C/C=C/C=C(C)/C=C/C=C(C)/C=C/C2=C(C)C(=O)CCC2(C)C)C(C)(C)CCC1=O [CA, canthaxanthin]	> 50						> 50		> 50	> 50
CC1=C(/C=C/C(C)=C/C=C/C(C)=C/C=C/C=C(C)/C=C/C=C(C)/C=C/C2=C(C)C[C@@H](O)CC2(C)C)C(C)(C)CCC1 [βC, β-cryptoxanthin]	34.9 ± 5.98						> 50		> 50	> 50
